Source: the NIST ThermoML archive (doi:10.1021/je049652j)

Assay: molar heat capacity at constant pressure
Settings: 101.33 kPa, Liquid

CCCCBr [1-bromobutane]
Settings	molar heat capacity at constant pressure [J/K/mol]
284.15 K	159.45
286.65 K	159.98
289.15 K	160.53
291.65 K	161.01
294.15 K	161.52
296.65 K	162.08
299.15 K	162.6
301.65 K	163.08
304.15 K	163.72
306.65 K	164.22
309.15 K	164.78
311.65 K	165.34
314.15 K	165.94
316.65 K	166.49
319.15 K	167.09
321.65 K	167.67
324.15 K	168.29
326.65 K	168.83
329.15 K	169.45
331.65 K	170.09
334.15 K	170.63
336.65 K	171
339.15 K	171.94
341.65 K	172.57
344.15 K	173.26
346.65 K	173.89
349.15 K	174.51
351.65 K	175.19
353.15 K	175.47

CCCCCCCCCCBr [1-bromodecane]
Settings	molar heat capacity at constant pressure [J/K/mol]
284.15 K	332.6
286.65 K	333.65
289.15 K	335
291.65 K	336.08
294.15 K	336.9
296.65 K	338.2
299.15 K	339.29
301.65 K	340.37
304.15 K	341.48
306.65 K	342.74
309.15 K	343.89
311.65 K	345.13
314.15 K	346.34
316.65 K	347.51
319.15 K	348.84
321.65 K	350.1
324.15 K	351.41
326.65 K	352.71
329.15 K	354.02
331.65 K	355.32
334.15 K	356.14
336.65 K	357.34
339.15 K	359.3
341.65 K	360.7
344.15 K	362.13
346.65 K	363.37
349.15 K	364.86
351.65 K	366.38
353.15 K	367.07

CCCCCCCBr [1-bromoheptane]
Settings	molar heat capacity at constant pressure [J/K/mol]
284.15 K	244.73
286.65 K	245.56
289.15 K	246.44
291.65 K	247.28
294.15 K	248.12
296.65 K	248.93
299.15 K	249.7
301.65 K	250.38
304.15 K	251.56
306.65 K	252.33
309.15 K	253.19
311.65 K	254.14
314.15 K	255
316.65 K	255.97
319.15 K	256.84
321.65 K	257.85
324.15 K	258.76
326.65 K	259.71
329.15 K	260.68
331.65 K	261.61
334.15 K	262.5
336.65 K	262.97
339.15 K	264.64
341.65 K	265.49
344.15 K	266.52
346.65 K	267.46
349.15 K	268.47
351.65 K	269.51
353.15 K	270.03

CCCCCCBr [1-bromohexane]
Settings	molar heat capacity at constant pressure [J/K/mol]
284.15 K	215.54
286.65 K	216.29
289.15 K	217.08
291.65 K	217.78
294.15 K	218.54
296.65 K	219.26
299.15 K	219.99
301.65 K	220.68
304.15 K	221.38
306.65 K	222.22
309.15 K	222.98
311.65 K	223.79
314.15 K	224.63
316.65 K	225.37
319.15 K	226.2
321.65 K	227.01
324.15 K	227.86
326.65 K	228.67
329.15 K	229.55
331.65 K	230.39
334.15 K	231.21
336.65 K	231.59
339.15 K	233.25
341.65 K	233.77
344.15 K	234.73
346.65 K	235.64
349.15 K	236.55
351.65 K	237.39
353.15 K	237.85

CCCCCCCCCBr [1-bromononane]
Settings	molar heat capacity at constant pressure [J/K/mol]
284.15 K	302.55
286.65 K	303.54
289.15 K	304.62
291.65 K	305.57
294.15 K	306.69
296.65 K	307.68
299.15 K	308.8
301.65 K	309.82
304.15 K	310.95
306.65 K	311.91
309.15 K	313.01
311.65 K	314.1
314.15 K	315.18
316.65 K	316.32
319.15 K	317.44
321.65 K	318.7
324.15 K	319.8
326.65 K	320.96
329.15 K	322.16
331.65 K	323.32
334.15 K	324.63
336.65 K	325
339.15 K	326.99
341.65 K	328.13
344.15 K	329.39
346.65 K	330.49
349.15 K	331.79
351.65 K	333.04
353.15 K	333.74

CCCCCBr [1-bromopentane]
Settings	molar heat capacity at constant pressure [J/K/mol]
284.15 K	187.88
286.65 K	188.46
289.15 K	189.17
291.65 K	189.85
294.15 K	190.33
296.65 K	190.94
299.15 K	191.57
301.65 K	192.17
304.15 K	193.01
306.65 K	193.53
309.15 K	194.17
311.65 K	194.86
314.15 K	195.6
316.65 K	196.21
319.15 K	196.98
321.65 K	197.61
324.15 K	198.35
326.65 K	199.09
329.15 K	199.8
331.65 K	200.47
334.15 K	201.48
336.65 K	201.57
339.15 K	202.76
341.65 K	203.58
344.15 K	204.33
346.65 K	205.07
349.15 K	205.89
351.65 K	206.69
353.15 K	207.05

CCCBr [1-bromopropane]
Settings	molar heat capacity at constant pressure [J/K/mol]
269.15 K	129.02
271.65 K	129.44
274.15 K	129.78
276.65 K	130.1
279.15 K	130.48
281.65 K	130.86
284.15 K	131.2
286.65 K	131.64
289.15 K	132.01
291.65 K	132.46
294.15 K	132.78
296.65 K	133.2
299.15 K	133.64
301.65 K	134
304.15 K	134.55
306.65 K	134.93
309.15 K	135.35
311.65 K	135.8
314.15 K	136.23
316.65 K	136.68
319.15 K	137.16
321.65 K	137.6
324.15 K	138.11
326.65 K	138.55

CCCCCl [1-chlorobutane]
Settings	molar heat capacity at constant pressure [J/K/mol]
284.15 K	156.22
286.65 K	156.75
289.15 K	157.28
291.65 K	157.7
294.15 K	158.27
296.65 K	158.86
299.15 K	159.48
301.65 K	160.05
304.15 K	160.5
306.65 K	161.06
309.15 K	161.59
311.65 K	162.24
314.15 K	162.92
316.65 K	163.42
319.15 K	164.11
321.65 K	164.82
324.15 K	165
326.65 K	165.97
329.15 K	166.72
331.65 K	167.29
334.15 K	167.78
336.65 K	168.53
339.15 K	169.12
341.65 K	170.01
344.15 K	170.43
346.65 K	170.49
349.15 K	171.5
351.65 K	173.02
353.15 K	173.09

CCCCCCCCCCCl [1-chlorodecane]
Settings	molar heat capacity at constant pressure [J/K/mol]
284.15 K	328.57
286.65 K	329.82
289.15 K	331
291.65 K	332.01
294.15 K	333.14
296.65 K	334.13
299.15 K	335.39
301.65 K	336.61
304.15 K	337.47
306.65 K	338.66
309.15 K	339.83
311.65 K	341.39
314.15 K	342.42
316.65 K	343.41
319.15 K	345.04
321.65 K	346.36
324.15 K	346.99
326.65 K	348.75
329.15 K	350.01
331.65 K	351.31
334.15 K	352.76
336.65 K	353.39
339.15 K	355.52
341.65 K	356.17
344.15 K	357.74
346.65 K	358.38
349.15 K	359.65
351.65 K	361.49
353.15 K	362.49

CCCCCCCCl [1-chloroheptane]
Settings	molar heat capacity at constant pressure [J/K/mol]
284.15 K	240.95
286.65 K	241.75
289.15 K	242.67
291.65 K	243.4
294.15 K	244.29
296.65 K	245.23
299.15 K	246.05
301.65 K	247.03
304.15 K	247.61
306.65 K	248.53
309.15 K	249.54
311.65 K	250.65
314.15 K	251.6
316.65 K	252.2
319.15 K	253.36
321.65 K	254.42
324.15 K	254.76
326.65 K	256.19
329.15 K	257.57
331.65 K	258.06
334.15 K	258.84
336.65 K	259.88
339.15 K	261.01
341.65 K	261.55
344.15 K	262.9
346.65 K	263.26
349.15 K	264.3
351.65 K	266.04
353.15 K	266.51
